Measurements as given in patent US20240335465A1 (University of Virginia Patent Foundation, priority 2021, published 2024).

Legend:
Format in all cases: cell-based, human
cell cycle progression = assay: Cell cycle analysis by flow cytometry (BrdU, propidium iodide)
Description: Cells were washed with cold PBS and resuspended in 0.5 ml PBS to achieve a single cell suspension. Cells were fixed in a tube containing 4.5 ml 70% ethanol kept at 4° C. overnight. Cells were collected by centrifugation at 500 g for 5 minutes and washed twice with PBS. Washed cells were then stained with 1 ml of freshly prepared staining solution containing propidium iodide (10 μg/ml), DNase-free RNaseA (100 μg/ml), and 0.1% (v/v) Triton X-100 before being subjected to flow cytometry measurement. To determine percentage of cell population in various cell cycle stage, ˜10,000-30,000 cells were acquired on an Attune NxT cytometer and analyzed using FCS Express software. Cell cycle analysis was performed on propidium iodide stained cells and single cell events were determined by gating on the area against the width of the propidium iodide pulse signal. DNA cell cycle modeling and fit was performed using the Multicycle AV plugin (Phoenix Flow Systems).
Cells were fixed and stained to detect BrdU incorporation by flow cytometry following the manufacturer's protocol (FITC BrdU Flow Kit, BD Biosciences, Cat #559619).

THP1 cells = assay: Quantitative RT-PCR gene expression in THP1 cells
Text: Quantitative RT-PCR analysis: Cells collected at indicated time points were washed with ice cold PBS and lysed in lml Trizol (Invitrogen). Total RNA extracted according to the manufacturer's recommendations was DNase treated and reverse transcribed to make cDNA with a QuantiTect Reverse Transcription kit (QIAGEN). The cDNAs synthesized were amplified by real-time quantitative PCR (Applied Biosystems 7900 HT Fast Real-Time PCR system) with Power SYBR green Master Mix. Relative gene expression was determined by the 2-ΔΔCt method, and 18S rRNA or GAPDH was used as an internal control. Primer details in Table 2.

U2OS-STING cells = assay: RIF1 and phospho-53BP1 foci immunofluorescence; details: pretreated with cGAMP, then etoposide or camptothecin
Description: Immunofluorescence Staining: 16,500 adherent cells/cm^2 were plated on a gelatin coated 8-chamber slide (VWR, Catalogue #62407-296) and treated as indicated. Media was removed and cells were washed with 1×PBS with Ca^2+/Mg^2+ and fixed with 4% PFA for 20 minutes. Fixed cells were permeabilized with PBS+0.1% Triton-X and washed 3 times with PBS+0.1% Tween20. After treatment as indicated, non-adherent THP1 cells were collected by centrifugation, washed in cold PBS and fixed in PFA. Post-fixation, they were washed with PBS, spotted on gelatin coated “PTFE” Printed Slides (Electron Microscopy Sciences, Cat #63424-06), and air-dried. For γH2AX staining, permeabilized cells were blocked in Serum-free DAKO Protein Block (Agilent, Catalogue #X0909) for 1 hr at room temperature. Cells were incubated in primary antibody (γH2AX, 1:500; anti-HA, 1:100; Table 1) in DAKO antibody diluent at 4° C. overnight on a rocker platform. U2OS-STING cells undergoing Rad51 staining were first fixed in methanol for 20 minutes in −20° C., blocked for 1 hr with donkey block (2% normal donkey serum, 1% BSA, 0.1% Triton X 100, 0.05% Tween20, 0.05% Sodium Azide in PBS), then finally incubated in an anti-Rad51 antibody overnight at 4° C. (Bio-academia Cat #70-001, 1:6000 in 5% milk in TBST). […]

## Nc1nc2c(ncn2[C@@H]2O[C@@H]3COP(=O)(O)O[C@H]4[C@@H](O)[C@H](n5cnc6c(N)ncnc65)O[C@@H]4COP(=O)(O)O[C@@H]2[C@@H]3O)c(=O)[nH]1 [cGAMP, cyclic guanosine monophosphate-adenosine monophosphate]
Cell cycle progression; STING−/−, shTBK1, shIFNAR1, shSTAT2 THP1
  dependence of cGAMP-induced G1 cell cycle arrest on STING, TBK1, IFNAR1, STAT2: reliant on the former two signaling proteins (i.e. STING and TBK1), but occurs independently of IFNAR and STAT2
Cell cycle progression; WT THP1, 10 μM Rucaparib or vehicle, 24 hours
  G1 arrest in unperturbed and PARP-inhibited cells: promotes G1 arrest in both unperturbed as well as PARP-inhibited cells
Cell cycle progression; WT THP1, BrdU, 24 hours
  number of cells in the S-phase: decreased the number of cells in the S-phase
  proportion of cells in the G1 phase: substantially increased the proportion of cells arrested in the G1 phase
Cell cycle progression; shP53 U2OS-STING cells, 24 hours
  cGAMP-induced G1 arrest after p53 knockdown: abrogated the cGAMP-induced G1 arrest
THP1 cells; STING−/− THP1, 10 μM MRT67307 2 hours then cGAMP 6 hours
  dependence of DDR gene induction on STING and TBK1: dependent on STING and TBK1
THP1 cells; THP1, exogenous cGAMP 1 μg vs transfected HT-DNA 2 μg
  induction of IFN genes (IFN-β and ISGs): comparable to that of cytosolic DNA-induced, endogenously produced cGAMP
THP1 cells; WT THP1, 6 hours
  CDKN1A/p21 transcript: strong induction of CDKN1A/p21
  transcript abundance of E2F target genes: decreased transcript abundance of E2F target genes
U2OS-STING cells
  RIF1 and phospho-53BP1 foci formation: augmented the RIF1 and phospho-53BP1 foci formation
